Laboratory results from paper PMC7144209, “Design, synthesis and anticancer activity of naphthoquinone derivatives” (Journal of Enzyme Inhibition and Medicinal Chemistry, 2020).

Columns and labels:
L02 = test: MTT cell viability assay, L02 cells; assay type: cell-based; settings: Homo sapiens, n = 3
SGC-7901 cells [1] = test: Annexin V-FITC/PI apoptosis assay (flow cytometry); assay type: cell-based, human; settings: 48 h; for total apoptosis: control 4.34%
Experimental: After the indicated treatments for 48 h, cells were collected, washed three times with cold PBS, centrifuged and resuspended with 400 μL AnnexinV binding buffer per tube. Then the cells were stained with 5μLAnnexinV-FITC and incubated in the dark for 10 min on ice. Finally, 10 μL PI staining solution was added, and cells were detected by the flow cytometry after incubated in the dark for 5 min. Flowjo 7.6.1 software was used to analyse the cell apoptosis.
Apoptosis is one of the main methods that result in cell death. In this study, Annexin V-FITC/PI kit was used to evaluate the cell apoptosis. […] To further, investigate whether the cell apoptosis induced by title compound, Western blot analysis was used to measure the effect of the compound on apoptosis of SGC-7901 cell. As reported that apoptosis pathway could be regulated by the activation of PARP and Bcl2 family proteins[40]^,[41].

SGC-7901 cells [2] = test: Acridine orange (AO) staining of acidic vesicles; assay type: cell-based, human; settings: SGC-7901, 1, 2, and 4 μM, 48 h
Experimental: PH-sensitive Acridine orange (AO) was used to label acidic vesicles. Human gastric cancer cells were seeded in laser confocal dishes at 10,000/ml. After indicated treatment of compound 12 (1 μM, 2 μM, 4 μM) for 48 h, cells were stained with AO (1 μg/ml) for 15 min at the cell culture incubator. After the cells were washed by PBS, pictures were acquired under laser confocal microscope.
Another typical feature of autophagy is the accumulation of the acidic autophagic vacuoles (AVOs)[45]^,[46]. To verify the development of AVOs, Acridine Orange (AO) staining was used to examine whether the acidic vesicular organelles in SGC-7901 cells were increased. AO produces red fluorescence when it accumulates in acidic regions such as autophagy lysosomes and lysosomes and produces bright green fluorescence in the cytoplasm and the nucleus. […] GFP-LC3 indicating technique was also used to detect the autophagy at the same time. When autophagy is formed, multiple bright green fluorescent spots will form as the GFP-LC3 fusion protein can translate to autophagosome membrane. From Figure 6(C), compared to the blank control group, GFP-LC3 puncta were increased after cells treated with compound 12 (4 μM) meanwhile decreased after treated with compound 12 (4 μM) and 3-MA (500 μM).

Structure (SMILES): CC(C)=CCC(OC(=O)CCC(=O)Nc1ccc(Oc2ccccc2)cc1)C1=CC(=O)c2c(O)ccc(O)c2C1=O (stereo not drawn) [Compound 12, 1-(5,8-dihydroxy-1,4-dioxo-1,4-dihydronaphthalen-2-yl)-4-methylpent-3-en-1-yl-4-oxo-4-((4-phenoxyphenyl)amino)butanoate]
- IC50 (L02): > 50 µM
- total apoptosis (SGC-7901 cells [1]; SGC-7901, 1 μM): 6.45%
- total apoptosis (SGC-7901 cells [1]; SGC-7901, 2 μM): 9.72%
- total apoptosis (SGC-7901 cells [1]; SGC-7901, 4 μM): 19.9%
- apoptosis rate in the presence of 3-MA compared with compound 12 alone (SGC-7901 cells [1]; compound 12 4 μM, 3-MA 500 μM): decreased
- red fluorescently labelled acidic vesicles (AO staining) (SGC-7901 cells [2]): accumulated obviously
